Data from patent publication US20260216238A1, “TETRATHIOMOLYBDIC ACID FOR USE IN TREATING COPPER METABOLISM-ASSOCIATED DISEASES OR DISORDERS (WILSON DISEASE)” (Alexion Pharmaceuticals, Inc., priority 2023, published 2026).

System: patients with Wilson disease (WD)
Experiment: UWDRS Part III total score, functional subscale and individual items (neurological examination)
Format: in vivo, human
Settings: for UWDRS Part III change from baseline, LSM Diff (TTM vs SoC) / UWDRS Part III change from baseline, Mean / UWDRS Part III change from baseline, Median / UWDRS Part III change from baseline, LSM: patients symptomatic at baseline; for UWDRS Part III change from baseline, LSM: MMRM; for UWDRS Part III (0-175) change from baseline, LSM / UWDRS Part III (0-175) change from baseline, Mean / UWDRS Part III functional subscale (0-10) change from baseline, LSM / UWDRS Part III functional subscale (0-10) change from baseline, Mean / UWDRS Part III-arising from chair (0-4) change from baseline, LSM / UWDRS Part III-arising from chair (0-4) change from baseline, Mean / UWDRS Part III-gait (0-4) change from baseline, LSM / UWDRS Part III-gait (0-4) change from baseline, Mean / UWDRS Part III-handwriting (0-4) change from baseline, LSM / UWDRS Part III-handwriting (0-4) change from baseline, Mean / UWDRS Part III-speech (0-4) change from baseline, LSM / UWDRS Part III-speech (0-4) change from baseline, Mean: Study 301 TTM long term set
Description: The UWDRS scoring system was developed specifically for the motor and movement disorders associated with chronic copper neurotoxicity in WD. Some individual items/subscales of the UWDRS Part III (arising from a chair, gait, handwriting, and speech) in addition to the UWDRS Parts I, II, and III overall, were assessed to further define the range of burdensome signs and symptoms of WD, so as to further understand the assessment of treatment effects on patients with WD. The UWDRS scores for consciousness (Part I) and abnormal neurologic examination findings (Part III) will be determined by a trained neurologist rater who is blinded to study treatment randomization. These scores were used to provide a rigorous dataset for evaluating changes from baseline.
Unified Wilson Disease Rating Scale (Parts I, II, and III): The UWDRS is a clinical rating scale designed to evaluate the neurological manifestations of WD that generally can be divided into 3 movement disorder syndromes: dystonic, ataxic, and Parkinsonian syndrome. The UWDRS comprises 3 parts: UWDRS Part I (level of consciousness, item 1), UWDRS Part II (a patient-reported review of daily activity items [disability], items 2 to 11), and UWDRS Part III (a detailed neurological examination, items 12 to 34).
The UWDRS Part I and Part III were assessed by a neurologist who is blinded to the treatment randomization, while UWDRS Part II may be reported to a non-blinded member of the study team by the patient, family member, or caregiver. The UWDRS has not been formally evaluated in adolescents. However, the components of Part I (level of consciousness), Part II (patient or caregiver-reported disability) and Part III (neurologic examination findings) were not fundamentally different between adults and adolescents. Patients aged 12 years and older were expected to be able to comply with UWDRS assessments.
Pooled results from all such participants will be integrated together into one timeline to allow analyses of changes in UWDRS, long-term copper control, and long-term safety laboratory data.
Endpoints (directly measured non-ceruloplasmin-bound copper [dNCC], UWDRS III (rater blinded) total and individual item scores, Clinical Global Impression-Improvement [CGI-I]) were evaluated at baseline (BL) and Week 48 (W48). Normalization (score decrease to 0), improvement (≥1 point decrease), stability (no change), or worsening (≥1 point increase) of total and individual UWDRS III item scores were evaluated at W48.

[1] = Week 48, Cohort 1, Total (Studies 301, 201, 205), n=127

With bis-choline tetrathiomolybdate [TTM] the “UWDRS-III, Change from Baseline, Median” value [1] was −1.00, the “UWDRS-III, Change from Baseline, Min” value [1] was −48.0, and the “UWDRS-III, Change from Baseline, Q1” value [1] was −6.00,. The “UWDRS-III, Change from Baseline, Q3” value [1] was 0.00, the “UWDRS-III, Change from Baseline, LSM Diff (TTM vs. SoC)” value (Week 48, Cohort 1, TTM Total vs SoC Study 301, P-value 0.1295) was −1.97 and the “UWDRS-III, Change from Baseline, LSM” value (Week 48, Cohort 1, TTM Total, SoC Study 301) was −3.62. For the same substance, the “UWDRS Part III change from baseline, LSM Diff (TTM vs SoC)” value (“UWDRS Part III change … (TTM vs SoC)” below) (Week 48, Cohort 1) was −0.79, the “UWDRS Part III change from baseline, Mean” value (“UWDRS Part III change … Mean” below) (Week 48, Cohort 1) was −2.86 and the “UWDRS Part III change from baseline, Median” value (from here on “UWDRS Part III change … Median”) (Week 48, Cohort 1) was −2.00. For the same substance, the “UWDRS Part III change from baseline, LSM” value (Week 48, Cohort 1) was −2.68, the “UWDRS Part III change … (TTM vs SoC)” value (Week 48, Cohort 2) was 0.05 and the “UWDRS Part III change … Mean” value (Week 48, Cohort 2) was −3.10. For the same substance, the “UWDRS Part III change … Median” value (Week 48, Cohort 2) was −3.00, the “UWDRS Part III change from baseline, LSM” value (Week 48, Cohort 2) was 1.43 and the “UWDRS Part III change … (TTM vs SoC)” value (Week 48, Overall) was −0.33. For the same substance, the “UWDRS Part III change … Mean” value (Week 48, Overall) was 2.91, the “UWDRS Part III change … Median” value (Week 48, Overall) was −2.00 and the “UWDRS Part III change from baseline, LSM” value (Week 48, Overall) was −1.54. For the same substance, the “UWDRS Part III (0-175) change from baseline, LSM” value (Week 48) was −2.47, the “UWDRS Part III (0-175) change from baseline, Mean” value (Week 48) was −2.32 and the “UWDRS Part III functional subscale (0-10) change from baseline, LSM” value (Week 48) was −0.230. For the same substance, the “UWDRS Part III functional subscale (0-10) change from baseline, Mean” value (Week 48) was −0.235, the “UWDRS Part III-arising from chair (0-4) change from baseline, LSM” value (Week 48) was 0.0 and the “UWDRS Part III-arising from chair (0-4) change from baseline, Mean” value (Week 48) was 0.0. The “UWDRS Part III-gait (0-4) change from baseline, LSM” value (Week 48) was −0.26, the “UWDRS Part III-gait (0-4) change from baseline, Mean” value (Week 48) was −0.18 and the “UWDRS Part III-handwriting (0-4) change from baseline, LSM” value (Week 48) was −0.1. The “UWDRS Part III-handwriting (0-4) change from baseline, Mean” value (Week 48) was −0.2, the “UWDRS Part III-speech (0-4) change from baseline, LSM” value (Week 48) was −0.1 and the “UWDRS Part III-speech (0-4) change from baseline, Mean” value (Week 48) was −0.1. The “UWDRS Part III (0-175) change from baseline, LSM” value (Week 72) was −3.47, the “UWDRS Part III (0-175) change from baseline, Mean” value (Week 72) was −3.27 and the “UWDRS Part III functional subscale (0-10) change from baseline, LSM” value (Week 72) was −0.253. For the same substance, the “UWDRS Part III functional subscale (0-10) change from baseline, Mean” value (Week 72) was −0.290, the “UWDRS Part III-arising from chair (0-4) change from baseline, LSM” value (Week 72) was −0.1 and the “UWDRS Part III-arising from chair (0-4) change from baseline, Mean” value (Week 72) was −0.1. The “UWDRS Part III-gait (0-4) change from baseline, LSM” value (Week 72) was −0.15, the “UWDRS Part III-gait (0-4) change from baseline, Mean” value (Week 72) was −0.12 and the “UWDRS Part III-handwriting (0-4) change from baseline, LSM” value (Week 72) was −0.2. The “UWDRS Part III-handwriting (0-4) change from baseline, Mean” value (Week 72) was −0.2, the “UWDRS Part III-speech (0-4) change from baseline, LSM” value (Week 72) was −0.1 and the “UWDRS Part III-speech (0-4) change from baseline, Mean” value (Week 72) was −0.1. The “UWDRS Part III (0-175) change from baseline, LSM” value (Week 96) was −4.77, the “UWDRS Part III (0-175) change from baseline, Mean” value (Week 96) was −4.09 and the “UWDRS Part III functional subscale (0-10) change from baseline, LSM” value (Week 96) was −0.386. For the same substance, the “UWDRS Part III functional subscale (0-10) change from baseline, Mean” value (Week 96) was −0.503, the “UWDRS Part III-arising from chair (0-4) change from baseline, LSM” value (Week 96) was −0.1 and the “UWDRS Part III-arising from chair (0-4) change from baseline, Mean” value (Week 96) was −0.2. For the same substance, the “UWDRS Part III-gait (0-4) change from baseline, LSM” value (Week 96) was −0.12, the “UWDRS Part III-gait (0-4) change from baseline, Mean” value (Week 96) was −0.11 and the “UWDRS Part III-handwriting (0-4) change from baseline, LSM” value (Week 96) was −0.3. For the same substance, the “UWDRS Part III-handwriting (0-4) change from baseline, Mean” value (Week 96) was −0.4, the “UWDRS Part III-speech (0-4) change from baseline, LSM” value (Week 96) was −0.2 and the “UWDRS Part III-speech (0-4) change from baseline, Mean” value (Week 96) was −0.2. For the same substance, the “UWDRS Part III (0-175) change from baseline, LSM” value (Week 120) was −5.27, the “UWDRS Part III (0-175) change from baseline, Mean” value (Week 120) was −4.08 and the “UWDRS Part III functional subscale (0-10) change from baseline, LSM” value (Week 120) was −0.392. The “UWDRS Part III functional subscale (0-10) change from baseline, Mean” value (Week 120) was −0.410, the “UWDRS Part III-arising from chair (0-4) change from baseline, LSM” value (Week 120) was −0.1 and the “UWDRS Part III-arising from chair (0-4) change from baseline, Mean” value (Week 120) was −0.2. The “UWDRS Part III-gait (0-4) change from baseline, LSM” value (Week 120) was 0.04, the “UWDRS Part III-gait (0-4) change from baseline, Mean” value (Week 120) was 0.26 and the “UWDRS Part III-handwriting (0-4) change from baseline, LSM” value (Week 120) was −0.3. The “UWDRS Part III-handwriting (0-4) change from baseline, Mean” value (Week 120) was −0.5, the “UWDRS Part III-speech (0-4) change from baseline, LSM” value (Week 120) was −0.2 and the “UWDRS Part III-speech (0-4) change from baseline, Mean” value (Week 120) was −0.1. The “UWDRS Part III (0-175) change from baseline, LSM” value (Week 144) was −6.38, the “UWDRS Part III (0-175) change from baseline, Mean” value (Week 144) was −5.99 and the “UWDRS Part III functional subscale (0-10) change from baseline, LSM” value (Week 144) was −0.489. For the same substance, the “UWDRS Part III functional subscale (0-10) change from baseline, Mean” value (Week 144) was −0.573, the “UWDRS Part III-arising from chair (0-4) change from baseline, LSM” value (Week 144) was −0.2 and the “UWDRS Part III-arising from chair (0-4) change from baseline, Mean” value (Week 144) was −0.3. For the same substance, the “UWDRS Part III-gait (0-4) change from baseline, LSM” value (Week 144) was −0.25, the “UWDRS Part III-gait (0-4) change from baseline, Mean” value (Week 144) was 0.00 and the “UWDRS Part III-handwriting (0-4) change from baseline, LSM” value (Week 144) was −0.3.
